Assay results taken from article PMC11189301, “Structure of the human outer kinetochore KMN network complex” (Nature Structural & Molecular Biology, 2024).

B1: MIS12C^Nsl1ΔC: MIS12C with Nsl1 truncated at the C-terminus (1–264 Nsl1 construct; residues 265–281 deleted) (protein)
chain 1: MSVDPMTYEAQFFGFTPQTCMLRIYIAFQDYLFEVMQAVEQVILKKLDGIPDCDISPVQIRKCTEKFLCFMKGHFDNLFSKMEQLFLQLILRIPSNILLPEDKCKETPYSEEDFQHLQKEIEQLQEKYKTELCTKQALLAELEEQKIVQAKLKQTLTFFDELHNVGRDHGTSDFRESLVSLVQNSRKLQNIRDNVEKESKRLKIS
chain 2: MAEASSANLGSGCEEKRHEGSSSESVPPGTTISRVKLLDTMVDTFLQKLVAAGSYQRFTDCYKCFYQLQPAMTQQIYDKFIAQLQTSIREEISDIKEEGNLEAVLNALDKIVEEGKVRKEPAWRPSGIPEKDLHSVMAPYFLQQRDTLRRHVQKQEAENQQLADAVLAGRRQVEELQLQVQAQQQAWQALHREQRELVAVLREPE
chain 3: MTSVTRSEIIDEKGPVMSKTHDHQLESSLSPVEVFAKTSASLEMNQGVSEERIHLGSSPKKGGNCDLSHQERLQSKSLHLSPQEQSASYQDRRQSWRRASMKETNRRKSLHPIHQGITELSRSISVDLAESKRLGCLLLSSFQFSIQKLEPFLRDTKGFSLESFRAKASSLSEELKHFADGLETDGTLQKCFEDSNGKASDFSLEASVAEMKEYITKFSLERQTWDQLLLHYQQEAKEILSRGSTEAKITEVKVEPMTYLGSSQNEVLNTKPDYQKILQNQSKVFDCMELVMDELQGSVKQLQAFMDESTQCFQKVSVQLGKRSMQQLDPSPARKLLKLQLQNPPAIHGSGSGSCQ
chain 4: MAGSPELVVLDPPWDKELAAGTESQALVSATPREDFRVRCTSKRAVTEMLQLCGRFVQKLGDALPEEIREPALRDAQWTFESAVQENISINGQAWQEASDNCFMDSDIKVLEDQFDEIIVDIATKRKQYPRKILECVIKTIKAKQEILKQYHPVVHPLDLKYDPDPAPHMENLKCRGETVAKEISEAMKSLPALIEQGEGFSQVLRMQPVIHLQRIHQEVFSSCHRKPDAKPENFITQIETTPTETASRKTSDMVLKRKQTKDC
modifications: left off: double strep II (DS), C-terminal, state not stated

Assays:
MIS12 complex = tested on: MIS12 complex; parameters: method as in PMID 24530301; conditions: compared with Nsl1 C-terminal peptide (residues 258–281); cited from earlier work
Knl1 = assay: SEC assessment of MIS12C^Nsl1ΔC binding to Knl1; parameters: species or system Homo sapiens; conditions: MIS12C^Nsl1ΔC (Nsl1 residues 265–281 deleted) + KNL1 at 4 µM each; 20 mM HEPES pH 7.8, 150 mM NaCl, 0.5 mM TCEP; Superose 6; at least two repeats
Experimental: Assessment of substitutions in the MIS12C–KNL1 interfaces
To test the effect of substitutions in the MIS12C–KNL1 interfaces, either wild-type MIS12C or MIS12C^Nsl1ΔC was mixed with either wild-type KNL1 or two mutants (KNL1^R2248D […] (KNL1^mut1), KNL1^S2270R S2272W (KNL1^mut2)) at 4 µM each in a buffer of 20 mM HEPES (pH 7.8), 150 mM NaCl and 0.5 mM TCEP, and 50 µl was loaded onto a Superose 6 size-exclusion column (Cytiva).
Extended Data Fig. 9 Biochemical validation of the MIS12C:Knl1 interface. a Coomassie blue-stained SDS-PAGE gels of the MIS12C:Knl1 interaction reconstitutions. MIS12C (WT) and MIS12C with Nsl1 truncated at the C-terminus (1–264 Nsl1 construct, MIS12C^Nsl1ΔC) were tested in their ability to bind either wild-type RWD domains of Knl1 (2131–2337 construct, labelled Knl1 for simplicity) or Knl1 mutants (R2248D/W2249S substitutions, Knl1^mut1, and S2270R/S2272W substitutions, Knl1^mut2, as well as S2270R/S2272W/R2248A/W2249S substitutions, Knl1^mut3). The binding experiments were repeated at least two independent times with identical results. The gels are aligned according to the fraction number of the protein sample eluted from the size exclusion column. b SEC elution chromatograms of all of the experiments described in (a). Source data

| Molecule | affinity of Knl1 for the whole MIS12 complex, in words (MIS12 complex) | MIS12C–Knl1 interaction by SEC, in words (Knl1) |
| --- | --- | --- |
| Knl1: outer kinetochore protein Knl1; prior affinity data of ref 11 | only slightly higher than its affinity for a peptide modeled on the C terminus of Nsl1 alone (residues 258–281) |  |
| B1 |  | reduced the interaction strength between Knl1 and MIS12C |
